Results from US7045532B2 (Millennium Pharmaceuticals, Inc., priority 1999, dated 2006).
Read-outs that look alike come from different tables or passages of the source.

Target: T1, ACE-2 (Homo sapiens, UniProt Q9BYF1)
T1 construct: a stop codon inserted after the serine immediately preceding the transmembrane domain; made in house; host or cells: CHO K1 cells (transient transfection, purified from conditioned medium)
Assay: ACE-2 Competitive Substrate Assay (ACS Assay)
Format: biochemical

[1] = Ki class, compounds tested in 5% DMSO, 12 compound concentrations, Ki=Kiapp/(1+[S]/Km), read-out: Human ACE-2 Activity
[2] = Ki class, compounds tested in 5% DMSO, 12 concentrations, read-out: Human ACE-2 Activity
[3] = Table 3, very good ACE-2 inhibiting compounds, species not given, read-out: ACE-2 Activity, Ki

T1 sequence (Q9BYF1 18-740 limits assumed): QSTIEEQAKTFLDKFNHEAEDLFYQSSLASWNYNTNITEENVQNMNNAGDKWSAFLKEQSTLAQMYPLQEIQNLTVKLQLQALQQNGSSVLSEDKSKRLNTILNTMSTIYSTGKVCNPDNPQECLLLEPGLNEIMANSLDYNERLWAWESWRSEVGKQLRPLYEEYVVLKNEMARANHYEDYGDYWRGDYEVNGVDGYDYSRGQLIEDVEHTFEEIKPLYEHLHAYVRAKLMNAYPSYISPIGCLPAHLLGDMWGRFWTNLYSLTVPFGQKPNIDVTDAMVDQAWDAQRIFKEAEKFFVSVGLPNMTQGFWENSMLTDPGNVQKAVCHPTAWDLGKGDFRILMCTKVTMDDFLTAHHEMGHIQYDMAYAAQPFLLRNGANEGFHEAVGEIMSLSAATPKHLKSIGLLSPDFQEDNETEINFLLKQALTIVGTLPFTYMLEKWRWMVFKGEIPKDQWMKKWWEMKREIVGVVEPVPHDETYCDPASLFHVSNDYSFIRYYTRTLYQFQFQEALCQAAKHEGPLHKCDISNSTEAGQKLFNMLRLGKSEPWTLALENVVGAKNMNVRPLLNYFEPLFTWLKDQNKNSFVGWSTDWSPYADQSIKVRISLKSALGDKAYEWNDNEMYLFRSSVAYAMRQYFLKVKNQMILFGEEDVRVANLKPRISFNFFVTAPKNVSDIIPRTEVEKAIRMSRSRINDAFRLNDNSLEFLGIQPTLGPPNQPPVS

| SMILES | Ki [1] [nM] | other results |
| --- | --- | --- |
| CC(C)CC(N[C@@H](C[C@H]1COC(=O)N1Cc1cc(Cl)cc(Cl)c1)C(=O)O)C(=O)O (stereo in doubt) [NN, (R,S,S)-2-{1-Carboxy-2-[3-(3,5-dichloro-benzyl)-2-oxo-oxazolidin-4-yl]-ethylamino}-4-methyl-pentanoic acid] | 100 to 500 |  |
| CC(C)C[C@H](N[C@@H](C/C=C\c1cc(Cl)cc(Cl)c1)C(=O)O)C(=O)O (stereo in doubt) [PV, 2-(1-Carboxy-3-methyl-butylamino)-5-(3,5-dichloro-phenyl)-pent-4-enoic acid] |  | Ki (Ki class per key, compounds tested in 5% DMSO, 12 compound concentrations, 25° C., Ki=Kiapp/(1+[S]/Km), read-out: Human ACE-2 Activity): < 100 nM |
| O=C(O)[C@@H]1C[C@@H](C(=O)O)N1 [A, Azetidine-2,4-dicarboxylic acid] |  | Ki [2]: > 500 nM |
| CCOC(=O)C(CCc1ccccc1)N[C@@H](CC(C)C)C(=O)O (stereo partly shown) [B, 2-(1-Ethoxycarbonyl-3-phenyl-propylamino)-4-methyl-pentanoicacid] |  | Ki [2]: > 500 nM |
| CC(C)CC(N[C@@H](CN(Cc1ccccc1)c1ccccc1)C(=O)O)C(=O)O (stereo partly shown) [GT, 2-[2-(Benzyl-phenyl-amino)-1-carboxy-ethylamino]-4-methyl-pentanoic acid] |  | Ki [2]: > 500 nM |
| O=C(O)[C@@H]1CCC[C@H](C(=O)O)N1 [H, Pipendine-2,6-dicarboxylic acid] |  | Ki [2]: > 500 nM |
| C[C@@H](N[C@@H](CCCNC(=N)N)C(=O)O)C(=O)O [I, 2-(1-Carboxy-ethylamino)-5-guanidino-pentanoic acid] |  | Ki [2]: > 500 nM |
| CC(C)CC(N[C@@H](Cc1cn(Cc2cccc(F)c2F)cn1)C(=O)O)C(=O)O (stereo partly shown) [IW, 2-[1-Carboxy-2-[1-(2,3-difluoro-benzyl)-1H-imidazol-4-yl]-ethylamino]4-methyl-pentanoic acid] | > 500 |  |
| NCCCC[C@@H](C(=O)O)N(CC(=O)O)CC(=O)O [K, 6-Amino-2-(bis-carboxymethyl-amino)-hexanoic acid] |  | Ki [2]: > 500 nM |
| CC(C)C[C@H](N[C@@H](Cc1csc(-c2cccc(C(F)(F)F)c2)n1)C(=O)O)C(=O)O [KD, (S,S)-2-{1-Carboxy-2-[2-(3-trifluoromethyl-phenyl)-thiazol-4-yl-]-ethylamino}-4-methyl-pentanoic acid] | > 500 |  |
| CC(C)C[C@H](N[C@@H](CCNC(=O)c1ccc2ccccc2c1)C(=O)O)C(=O)O [KE] | > 500 |  |
| CC(C)C[C@H](N[C@@H](CCNS(=O)(=O)c1ccc(-c2ccccc2)cc1)C(=O)O)C(=O)O [KF, 2-[3-(Biphenyl-4-sulfonylamino)-1-carboxy-propylamino]-4-methyl-pentanoic acid] | 100 to 500 |  |
| CC(C)C[C@H](N[C@@H](Cc1csc(-c2ccc(Cl)cc2Cl)n1)C(=O)O)C(=O)O [KG, (S,S)-2-{1-Carboxy-2-[2-(2,4-dichloro-phenyl)-thiazol-4-yl-]-ethylamino}-4-methyl-pentanoic acid] | < 100 | Ki [3]: 50 to 100 nM |
| CC(C)C[C@H](N[C@@H](Cc1csc(-c2ccc3c(c2)CCO3)n1)C(=O)O)C(=O)O [KI, (S,S)-2-{1-Carboxy-2-[2(2,3-dihydro-benzofaran-5-yl]-thiazol-4-yl]-ethylamino}-4-methyl pentanoic acid] | < 100 | Ki [3]: 50 to 100 nM |
| CC(C)C[C@H](N[C@@H](Cc1csc(-c2ccc(F)c(Cl)c2)n1)C(=O)O)C(=O)O [KJ, (S,S)-2-{1-Carboxy-2-[2-(3-chloro-4-fluoro-phenyl)-thiazol-4-yl-]-ethylamino}-4-methyl-pentanoic acid] | < 100 | Ki [3]: 50 to 100 nM |
| Cc1ccc(-c2nc(C[C@H](N[C@@H](CC(C)C)C(=O)O)C(=O)O)cs2)cc1 [KK, (S,S)-2-[1-Carboxy-2-(2-p-tolyl-thiazol-4-yl)-ethylamino]-4-methyl-pentanoic acid] | < 100 | Ki [3]: < 50 nM |
| CC(C)C[C@H](N[C@@H](Cc1cc(-c2ccccc2)on1)C(=O)O)C(=O)O [KL, 2-[1-Carboxy-2-(5-phenyl-isoxazol-3-yl)-ethylamino]-4-methyl-pentanoic acid] | 100 to 500 |  |
| CC(C)C[C@H](NC(=O)[C@@H](S)Cc1ccccc1)C(=O)O [KM, 2-(2-Mercapto-3-phenyl-propionylamino)-4-methyl-pentanoic acid] | > 500 |  |
| CC(C)C[C@H](N[C@@H](CCNS(=O)(=O)c1ccc(-c2ccc(Cl)cc2)cc1)C(=O)O)C(=O)O [KN, (S,S)-2-[1-Carboxy-3-(4′-chloro-biphenyl-4-sulfonylamino)-propylamino]-4-methyl-pentanoic acid] | > 500 |  |
| COc1cccc(C(=O)NCC[C@H](N[C@@H](CC(C)C)C(=O)O)C(=O)O)c1 [KO, 2-[1-Carboxy-3-(3-methoxy-benzoylamino)-propylamino]-4-methyl-pentanoic acid] | > 500 |  |

| SMILES | Ki [1] [nM] | other results |
| --- | --- | --- |
| CC(C)C[C@H](N[C@@H](CCNC(=O)c1cccc(Cl)c1)C(=O)O)C(=O)O [KP, (S,S)-2-[1-Carboxy-3-(3-chloro-benzoylamino)-propylamino]-4-methyl-pentanoic acid] | > 500 |  |
| CC(C)C[C@H](N[C@@H](Cc1ccc(OCc2ccccc2)cc1)C(=O)O)C(=O)O [KQ, S,S-2-[2-(4-Benzyloxy-phenyl)-1-carboxy-ethylamino-]4-methyl-pentanoic acid] | 100 to 500 |  |
| CC(C)C[C@H](N[C@@H](Cc1ccc(OCC2CCCCC2)cc1)C(=O)O)C(=O)O [KR, S,S-2-[1-Carboxy-2-(4-cyclohexylmethoxy-phenyl)-ethylamino]-4-methyl pentanoic acid] | 100 to 500 |  |
| CC(C)C[C@H](N[C@@H](Cc1ccc(OCc2cc(Cl)cc(Cl)c2)cc1)C(=O)O)C(=O)O [KS, 2-[1-Carboxy-2-[4-(3,5-dichloro-benzyloxy)-phenyl]-ethylamino)-4-methyl-pentanoic acid] | < 100 | Ki [3]: < 50 nM |
| Cc1cc(C)cc(COc2ccc(C[C@H](N[C@@H](CC(C)C)C(=O)O)C(=O)O)cc2)c1 [KT, 2-[1-Carboxy-2-[4-(3,5-dimethyl-benzyloxy)-phenyl]-ethylamino]-4-methyl-pentanoic acid] | 100 to 500 |  |
| CC(C)C[C@H](N[C@@H](Cn1ccn(Cc2ccc(Cl)c(Cl)c2)c1=O)C(=O)O)C(=O)O [KU, (S,S) 2-{1-Carboxy-2-[3-(3,4-dichloro-benzyl)-2-oxo-2,3-dihydro-imidazol-1-yl]ethylamino}-4-methyl-pentanoic acid] | < 100 | Ki [3]: 50 to 100 nM |
| CC(C)C[C@H](N[C@@H](CC(=O)Nc1nc2ccccc2s1)C(=O)O)C(=O)O [KV, 2-[2-(Benzothiazol-2-ylcarbamoyl)-1-carboxy-ethylamino]-4-methyl-pentanoic acid] | < 100 | Ki [3]: < 50 nM |
| CC(C)CC(NC(CC(=O)N1CCN(C(c2ccccc2)c2ccc(Cl)cc2)CC1)C(=O)O)C(=O)O (stereo not shown) [KW, 2-(1-Carboxy-3-[4-[(4-chloro-phenyl)-phenyl-methyl]-piperazin-1-yl]-3-oxo-propylamino)-4-methyl-pentanoic acid] | > 500 |  |
| COC(=O)[C@H](Cc1cncn1Cc1cc(Cl)cc(Cl)c1)N[C@@H](CC(C)C)C(=O)O [KX, (S,S) 2-{2-[3-(3,5-Dichloro-benzyl)-3H-imidazol-4-yl]-1-methoxycarbonyl-ethylamino}-4-methyl-pentanoic acid] | < 100 | Ki [3]: < 50 nM |
| COC(=O)[C@H](Cc1cncn1Cc1cc(Cl)cc(Cl)c1)N[C@H](CC(C)C)C(=O)O [KY, 2-[2-[3-(3,5-Dichloro-benzyl)-3H-imidazol-4-yl]-1-methoxycarbonyl-ethylamino]-4-methyl-pentanoic acid] | 100 to 500 |  |
| CC1(C)SC(C(=O)O)NC1C(=O)O (stereo not shown) [L, 5,5-Dimethyl-thiazolidine-2,4-dicarboxylic acid] |  | Ki [2]: > 500 nM |
| COC(=O)[C@H](Cc1cncn1Cc1cc(Cl)cc(Cl)c1)N[C@H](CC(C)C)C(=O)OCc1ccccc1 [LA, 2-[2-[3-(3,5-Dichloro-benzyl)-3H-imidazol-4-yl]-1-methoxycarbonyl-ethylamino]-4-methyl-pentanoic acidbenzyl ester] | > 500 |  |
| CC(C)C[C@H](N[C@@H](Cc1cncn1Cc1cc(Cl)cc(Cl)c1)C(=O)OCc1ccccc1)C(=O)O [LB, (S,S) 2-{1-Benzyloxycarbonyl-2-[3-(3,5-dichloro-benzyl)-3H-imidazol-4-yl]-ethylamino}-4-methyl-pentanoic acid] | > 500 |  |
| CCCCOC(=O)[C@H](Cc1cncn1Cc1cc(Cl)cc(Cl)c1)N[C@@H](CC(C)C)C(=O)O [LD, (S,S) 2-{1-Butoxycarbonyl-2-[3-(3,5-dichloro-benzyl)-3H-imidazol-4-yl]-ethylamino}-4-methyl-pentanoic acid] | < 100 |  |
| CCCCOC(=O)[C@H](Cc1cncn1Cc1cc(Cl)cc(Cl)c1)N[C@H](CC(C)C)C(=O)O [LE, 2-[1-Butoxycarbonyl-2-[3-(3,5-dichloro-benzyl)-3H-imidazol-4-yl]-ethylamino]4-methyl-pentanoic acid] | > 500 |  |
| CC(C)C[C@H](N[C@@H](Cn1ccn(Cc2cc(Cl)cc(Cl)c2)c1=O)C(=O)O)C(=O)O [LF, (S,S) 2-{1-Carboxy-2-[3-(3,5-dichloro-benzyl)-2-oxo-2,3-dihydro-imidazol-1-yl]-ethylamino}-4-methyl-pentanoic acid] | < 100 | Ki [3]: 50 to 100 nM |
| CC(C)C[C@H](N[C@@H](Cn1ccn(Cc2cc(F)cc(F)c2)c1=O)C(=O)O)C(=O)O [LG, 2-[1-Carboxy-2-[3-(3,5-difluoro-benzyl)-2-oxo-2,3-dihydro-imidazol-1-yl]-ethylamino]-4-methyl-pentanoic acid] | < 100 | Ki [3]: 50 to 100 nM |
| CC(C)C[C@H](N[C@@H](Cn1ccn([C@@H](C)c2ccccc2)c1=O)C(=O)O)C(=O)O [LH, (S,S)-2-{1-Carboxy-2-[2-oxo-3-(1-phenyl-ethyl)-2,3-dihydro-imidazol-1-yl]-ethylamino}-4-methyl-pentanoic acid] | 100 to 500 |  |
| CC(C)C[C@H](N[C@@H](CNC(=O)c1cccc(Cl)c1)C(=O)O)C(=O)O [LI, (S,S)-2-[1-Carboxy-2-(3-chloro-benzoylamino)-ethylamino]-4-methyl-pentanoic acid] | > 500 |  |
